Test results taken from patent publication US9969715B2, “Compounds useful for treating cancer” (ABIVAX, priority 2012, dated 2018).

Experiments:
[1] = test system: MDA-MB231-luc-D3H2LN cells; assay: Toxicity assay under normal cell culture conditions (MTS), MDA cells; assay type: cell-based, human; conditions: MDA-MB231-luc-D3H2LN cells, MEM+10% FBS, 72 h incubation, MTS
Procedure: (§1) In order to detect possible toxic effects, all compounds are tested in parallel in a viability assay. The viability assay is performed in parallel on serum-starved cells (as in the invasion assay) vs. cells under normal culture conditions (10% FBS).
(§2) Toxicity Assays (Under Normal Cell Culture Conditions):
(§3) Compounds were prepared as for the invasion assay, and then added to either MDA-MB231-luc-D3H2LN cells (2000/well) under normal culture conditions (MEM+10% FBS), or human PBMC (75000/well, in RPMI+10% FBS+IL-2) in standard 96-well tissue culture plates. After 72 h incubation, a standard MTS assay was performed according to the manufacturer's instructions (Promega Ref. G3581). Compounds were tested at various concentrations (concentration-response curves) in order to determine the concentrations at which 50% toxicity is obtained.

[2] = test system: MDA-MB231-luc-D3H2LN cells; assay: Viability (MTS) assay on the cells in collagen under invasion assay conditions; assay type: cell-based, human; conditions: loss of viability at the concentration giving 0.5 × effect of 10 μM Y-27632, invasion assay conditions
Procedure: (§4) Viability assay, fixation and staining: Following another 24 h incubation, an MTS assay is performed directly on the cells in the collagen. Then, cells are fixed and nuclei are stained.
as §1
Viability Assay: MTS Assay:
add each 33 μl/well of the MTS reagent, incubate 3-4 h at 37° C./5% CO2
read absorbance at 490 nm (proportional to the viability)
calculate the background-corrected signals by subtracting the means of the background signals in absence of cells from the corresponding signals in presence of cells
normalize the background-corrected signals with respect to the mean signal of the negative controls (no drug) (viabilities are thus expressed in “% of control”)
(§5) Final analysis: Determine the concentration at which a given compound has 50% of the anti-invasive effect of the positive control (10 μM Y-27632). Determine the toxicity (=loss of viability) of the compound under these conditions.

[3] = test system: MDA-MB231-luc-D3H2LN cells; assay: Invasion of MDA-MB231-D3H2LN cells into collagen (example 15 = procedure 2, 48 h drug pre-incubation); assay type: cell-based; conditions: concentration giving 50% of the anti-invasive effect of 10 μM Y-27632; 48 h pre-incubation, 24 h with 5% FBS; read-out: MDA: Inhib. of invasion: 0.5 × eff. of 10 μM Y-27632 at (μM) av
Procedure: Effect of Drug Compounds on Invasion of MDA-MB231-D3H2LN Cells into Collagen
Preparation of cells at the bottom of a collagen gel: Cells are suspended in a liquid collagen solution (4° C.), distributed into BSA-coated wells, and then collected at the bottom of the wells by centrifugation. The collagen is then solidified by incubation at 37° C. The BSA coating improves the adhesion of the collagen gel.
Pre-treatment with the compounds to be tested: Concentrated drug solutions are then added on top of the collagen, and cells are pre-incubated for 48 h with the drugs at low serum conditions (0.025% FBS).
Stimulation of invasion: Medium with 5% FBS is then added in order to stimulate invasion of the cells into the collagen gel.
as §4
Analysis: Finally, plates are analyzed using an automated microscope. Fluorescent beads that have been included into the BSA coating serve to detect the bottom of the wells. Pictures of the stained nuclei are taken at the same level (0 μm) as well as 25 μm and 50 μm above.
Negative control: No drug (just DMSO at equivalent concentration). Positive control: 10 μM Y-27632. To avoid edge effects, cells are added only to the 60 central wells B2-G11; lines A and H receive only collagen without cells (blank for the MTS assay) columns 1 and 12 remain free. Each drug is tested at least in triplicate. The positive and negative controls should be tested in several triplicates at different positions on each plate. Typical plate map (−=negative control, +=positive control, 1-12=12 different test conditions, i. e. different drug compounds or concentrations):
Preparation of 4× concentrated drug solutions in MEM+0.1% FBS+2% Lutrol E-400+0.8% DMSO: Mix each 620 μl MEM+0.1% FBS+2% Lutrol E-400 with each 4 μl DMSO+each 1 μl of the 50 mM compound stock solutions (yielding […] and 0.8% DMSO). If the desired final compound concentration is <5 μM, then further dilute in MEM+0.1% FBS+0.8% DMSO. Negative control: MEM+0.1% FBS+2% Lutrol E-400+0.8% DMSO without any drug. Preparation of the positive control: Mix 4.5 ml MEM+0.1% FBS+2% Lutrol E-400+[…] with 36 μl 5 mM Y-27632 (freshly thawed aliquot) (yielding 40 μM).
add each 33 μl/well of the 4× concentrated drug solutions in MEM+0.1% FBS+2% Lutrol E-400+0.8% DMSO to the corresponding wells (yields 1× concentrated drugs in MEM+0.025% FBS+0.5% Lutrol E-400+0.2% DMSO final)
incubate 48 h at 37° C./5% CO2
incubate 24 h at 37° C./5% CO2
for each well, calculate the mean invasion distance of the counted cells: (25 μm×number of cells at 25 μm+50 μm×number cells at 50 μm)/sum of cells at 0, 25 and 50 μm
invalidate any replicate with a CV≥50% (compound to be re-tested, or assay to be repeated if CV≥50% for the untreated negative control or the compound Y-27632-treated positive control). Y27632 is a selective inhibitor of the Rho-associated protein kinase p160ROCK of the following formula
validate the assay only if the mean invasion distance of the cells treated with 10 μM Y-27632 (positive control) is decreased by ≥40% as compared to the untreated negative control
as §5
Here, invasion (into collagen) is the concentration of the compound necessary to reach 50% of the inhibition effect compared to 10 μM Y-27632.
Standard operating procedure 2 is exactly the same as the procedure as described in example 15.

human PBMC = assay: Toxicity assay under normal cell culture conditions (MTS), PBMC; assay type: cell-based; conditions: human PBMC, RPMI+10% FBS+IL-2, 72 h incubation, MTS
Procedure: as §2, §3

SMILES | MDA tox: 50% tox. at (μM) av [1] | (+ MDA tox. under these cond.) % tox [2] [%] | IC50 [3] [µM] | PBMC tox.: 50% tox. at (μM) av (human PBMC)
CCN(CC)CCCNC(=O)c1cncc(Nc2cccc(C(=O)Nc3ccncc3)c2)c1 [Compound 32, N-(3-(diethylamino)propyl)-5-((3-(pyridin-4-ylcarbamoyl)phenyl)amino) nicotinamide] | >>100 μM | <10 | 13.3 | >>100 μM
CN1CCN(CCCNC(=O)c2cccc(Nc3cccc(C(=O)Nc4ccncn4)c3)c2)CC1 [Compound 31, N-(3-(4-methylpiperazin-1-yl)propyl)-3-((3-(pyrimidin-4-ylcarbamoyl)phenyl)amino)benzamide] | 95 µM | <10 | 0.1 | 92 µM
CCN(CC)CCCNC(=O)c1cccc(Nc2cccc(C(=O)N(C)c3ccncc3)c2)c1 [Compound 17, 3-((3-((3-(diethylamino)propyl)carbamoyl)phenyl)amino)-N-methyl-N-(pyridin-4-yl)benzamide] | >100 µM | <10 | 3 | >100 µM
CN1CCN(CCCNC(=O)c2cccc(Nc3cccc(C(=O)Nc4ccncc4)c3)c2)CC1 [Compound 6, N-(3-(4-methylpiperazin-1-yl)propyl)-3-((3-(pyridin-4-ylcarbamoyl)phenyl)amino)benzamide] | 58 µM | <10 | 0.16 | 100 µM
CCN(CC)CCCNS(=O)(=O)c1cccc(Nc2cccc(C(=O)Nc3ccncn3)c2)c1 [Compound 26, 3-((3-(N-(3-(diethylamino)propyl)sulfamoyl)phenyl)amino)-N-(pyrimidin-4-yl)benzamide] | 73 µM | <10 | 3.6 | 85 µM
CN(C(=O)c1cccc(Nc2cccc(C(=O)NCCCN3CCCCC3)c2)c1)c1ccncc1 [Compound 21, N-methyl-3-((3-((3-(piperidin-1-yl)propyl)carbamoyl)phenyl)amino)-N-(pyridin-4-yl)benzamide] | >100 µM | <10 | 2.05 | >100 µM
O=C(Nc1ccncn1)c1cccc(Nc2cccc(S(=O)(=O)NCCCN3CCCCC3)c2)c1 [Compound 27, 3-((3-(N-(3-(piperidin-1-yl)propyl)sulfamoyl)phenyl)amino)-N-(pyrimidin-4-yl)benzamide] | 66 µM | <10 | 2.8 | 61 µM
O=C(NCCCN1CCCC1)c1cccc(Nc2cccc(C(=O)Nc3ccncn3)c2)c1 [Compound 28, N-(pyrimidin-4-yl)-3-((3-((3-(pyrrolidin-1-yl)propyl)carbamoyl)phenyl)amino)benzamide] | 35 µM | <10 | 0.26 | 49 µM
